Data from patent publication EP1500391A1, “Therapeutic use of bicycloheptane derivatives” (NEURO3D, priority 2003, dated 2005).
Like-named read-outs stand apart in the source and are kept apart here.

Experiments:
[1] = target: T1, human 5-HT2A receptor (Homo sapiens, UniProt P28223); experiment: 5HT2a radioligand binding assay ([3H]ketanserin); settings: inhibition of control specific binding; at 1µM (concentration printed only in head of Cpd A); human recombinant
T1 construct: expressed in transfected cells; host or cells: HEK-293 cells

[2] = target: human dopamine D2S receptor (Homo sapiens, UniProt P14416); experiment: D2 radioligand binding assay ([3H]spiperone); settings: read-out: %inhibition D2
[3] = target: T2, human 5-HT2C receptor (Homo sapiens, UniProt P28335); experiment: 5HT2c radioligand binding assay ([3H]mesulergine); settings: inhibition of control specific binding; at 1µM (concentration printed only in head of Cpd A); transfected CHO cells
T2 construct: expressed in transfected cells; host or cells: CHO cells
T2 sequence (P28335 33-458): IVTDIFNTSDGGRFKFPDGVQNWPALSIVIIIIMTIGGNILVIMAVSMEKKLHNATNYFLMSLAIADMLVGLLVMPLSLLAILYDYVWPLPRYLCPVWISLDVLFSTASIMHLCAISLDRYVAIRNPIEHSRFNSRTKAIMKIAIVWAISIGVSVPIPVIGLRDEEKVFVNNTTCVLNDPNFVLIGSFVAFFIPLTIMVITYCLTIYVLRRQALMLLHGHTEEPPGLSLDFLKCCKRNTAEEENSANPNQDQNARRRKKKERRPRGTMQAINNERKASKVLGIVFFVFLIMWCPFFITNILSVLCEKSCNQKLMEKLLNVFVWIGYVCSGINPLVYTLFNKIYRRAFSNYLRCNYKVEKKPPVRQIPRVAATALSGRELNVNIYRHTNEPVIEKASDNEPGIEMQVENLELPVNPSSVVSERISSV

[4] = target: human 5-HT6 receptor (Homo sapiens, UniProt P50406); experiment: 5HT6 radioligand binding assay ([3H] LSD); settings: read-out: %inhibition 5HT6
Experimental: 5HT6 ASSAY : Evaluation of the affinity of compounds for the human 5-HT6 receptor in transfected HEK 293 cells determined in a radioligand binding assay. Cell membrane homogenates (15-20 µg protein) were incubated for 60 min at 37°C with 2 nM [^3H] LSD in the absence or presence of the test compound in a buffer containing 50 mM Tris-HCl (pH 7.4), 10 mM MgCl2 and 0.5 mM EDTA. Nonspecific binding was determined in the presence of 100 µM 5-HT. Following incubation, the samples were filtered rapidly under vacuum through glass fiber filters (GF/B, Packard) presoaked with 0.3% PEI and rinsed several times with ice-cold 50 mM Tris-HCl using a 96-sample cell harvester (Unifilter, Packard). The filters were dried then counted for radioactivity in a scintillation counter (Topcount, Packard) using a scintillation cocktail (Microscint 0, Packard).
The specific ligand binding to the receptor is defined as the difference between the total binding and the non specific binding determined in the presence of an excess of unlabelled ligand. The results are expressed as a percentage of control specific binding and as a percentage inhibition of control specific binding obtained in the presence of the compounds.

[5] = target: human dopamine D3 receptor (Homo sapiens, UniProt P35462); experiment: D3 radioligand binding assay ([3H]spiperone); settings: read-out: %inhibition D3
Experimental: Nonspecific binding was determined in the presence of 10 µM (+)butaclamol. Following incubation, the samples were filtered rapidly under vacuum through glass fiber filters (GF/B, Packard) presoaked with 0.3% PEI and rinsed several times with ice-cold 50 mM Tris-HCl using a 96-sample cell harvester (Unifilter, Packard). The filters were dried then counted for radioactivity in a scintillation counter (Topcount, Packard) using a scintillation cocktail (Microscint 0, Packard). The specific ligand binding to the receptor is defined as the difference between the total binding and the non specific binding determined in the presence of an excess of unlabelled ligand. The results are expressed as a percentage of control specific binding and as a percentage inhibition of control specific binding obtained in the presence of the compounds.

[6] = system: non-selective sigma receptor; experiment: σ radioligand binding assay ([3H]DTG); settings: inhibition of control specific binding; at 1µM (concentration printed only in head of Cpd A); rat cerebral cortex
[7] = inhibition of control specific binding, at 1µM (concentration printed only in head of Cpd A), transfected CHO cells

Chain of human dopamine D2S receptor (P14416 1-414 isoform P14416-2): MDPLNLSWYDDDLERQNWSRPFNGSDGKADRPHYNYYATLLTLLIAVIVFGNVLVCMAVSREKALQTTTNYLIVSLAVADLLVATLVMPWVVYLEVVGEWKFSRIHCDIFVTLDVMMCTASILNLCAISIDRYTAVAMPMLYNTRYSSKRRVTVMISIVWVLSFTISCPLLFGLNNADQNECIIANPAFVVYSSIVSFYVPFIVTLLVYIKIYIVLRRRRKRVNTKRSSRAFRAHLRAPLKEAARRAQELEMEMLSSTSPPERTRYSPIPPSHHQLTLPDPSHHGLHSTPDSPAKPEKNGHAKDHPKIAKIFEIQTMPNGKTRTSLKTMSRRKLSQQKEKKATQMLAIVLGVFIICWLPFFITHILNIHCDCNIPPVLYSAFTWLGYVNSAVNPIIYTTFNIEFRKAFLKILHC
Chain of human dopamine D3 receptor (P35462 whole entry): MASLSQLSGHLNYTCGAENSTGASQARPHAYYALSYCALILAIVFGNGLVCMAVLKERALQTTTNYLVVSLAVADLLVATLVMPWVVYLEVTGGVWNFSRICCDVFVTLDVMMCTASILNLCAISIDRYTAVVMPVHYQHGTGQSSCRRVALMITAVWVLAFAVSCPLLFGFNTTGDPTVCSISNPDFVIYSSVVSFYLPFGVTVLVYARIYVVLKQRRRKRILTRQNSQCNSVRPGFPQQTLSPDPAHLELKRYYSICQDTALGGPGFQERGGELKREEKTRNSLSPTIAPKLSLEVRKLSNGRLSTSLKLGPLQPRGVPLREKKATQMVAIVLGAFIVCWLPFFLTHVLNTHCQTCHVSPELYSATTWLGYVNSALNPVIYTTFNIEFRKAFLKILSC
T1 sequence (P28223 whole entry): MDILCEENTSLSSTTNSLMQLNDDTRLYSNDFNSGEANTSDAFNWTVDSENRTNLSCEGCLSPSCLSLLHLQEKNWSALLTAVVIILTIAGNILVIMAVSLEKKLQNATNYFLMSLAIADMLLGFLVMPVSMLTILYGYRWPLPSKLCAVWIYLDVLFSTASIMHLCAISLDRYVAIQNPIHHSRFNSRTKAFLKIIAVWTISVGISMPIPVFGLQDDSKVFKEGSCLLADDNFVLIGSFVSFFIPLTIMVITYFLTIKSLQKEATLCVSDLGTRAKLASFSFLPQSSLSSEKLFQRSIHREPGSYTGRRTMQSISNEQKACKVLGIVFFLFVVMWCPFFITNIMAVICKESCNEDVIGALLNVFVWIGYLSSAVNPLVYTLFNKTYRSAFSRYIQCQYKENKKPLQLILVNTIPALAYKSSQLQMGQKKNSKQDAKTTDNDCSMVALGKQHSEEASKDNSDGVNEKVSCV
Chain of human 5-HT6 receptor (P50406 whole entry): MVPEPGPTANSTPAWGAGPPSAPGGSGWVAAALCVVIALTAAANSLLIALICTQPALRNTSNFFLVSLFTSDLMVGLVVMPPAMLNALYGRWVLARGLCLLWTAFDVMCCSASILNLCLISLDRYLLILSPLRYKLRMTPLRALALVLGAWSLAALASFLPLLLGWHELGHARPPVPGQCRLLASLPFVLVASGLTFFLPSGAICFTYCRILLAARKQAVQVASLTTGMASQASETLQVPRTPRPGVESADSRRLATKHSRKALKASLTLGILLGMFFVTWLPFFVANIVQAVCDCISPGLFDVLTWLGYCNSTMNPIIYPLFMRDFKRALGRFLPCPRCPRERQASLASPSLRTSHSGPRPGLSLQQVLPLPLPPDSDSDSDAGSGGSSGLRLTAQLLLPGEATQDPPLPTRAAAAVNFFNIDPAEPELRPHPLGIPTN

| Structure (SMILES) | inhibition at 1 µM [1] [%] | inhibition at 1 µM [2, 7] [%] | inhibition at 1 µM [3] [%] | inhibition at 1 µM [4] [%] | inhibition at 1 µM [5, 7] [%] | %inhibition σ [6] [%] | inhibition at 1 µM [2] [%] | inhibition at 1 µM [5] [%] |
| --- | --- | --- | --- | --- | --- | --- | --- | --- |
| CNCCO[C@]1(c2ccccc2)C[C@H]2CC[C@]1(C)C2(C)C [Cpd D, (1R,2S,4R)-(-)-2-methylaminoethoxy-2-phenyl-1,7,7-trimethyl-bicyclo[2.2.1]heptane] | 98 | 57 | 97 | 89 | 81 | – | – | – |
| CNCCO[C@@]1(c2ccccc2)C[C@@H]2CC[C@@]1(C)C2(C)C [Cpd C, (1S,2R,4S)-(+)-2-methylaminoethoxy-2-phenyl-1,7,7-trimethyl-bicyclo[2.2.1]heptane] | 89 | 10 | 65 | 36 | 24 | – | – | – |
| CN(C)CCO[C@]1(c2ccccc2)C[C@H]2CC[C@]1(C)C2(C)C [Cpd B, (1R,2S,4R)-(-)-2-[N,N-(dimethylaminoethoxy)]-2-phenyl-1,7,7-trimethyl-bicyclo[2.2.1]heptane] | 99 | – | 99 | 88 | – | 72 | 74 | 89 |
| CN(C)CCO[C@@]1(c2ccccc2)C[C@@H]2CC[C@@]1(C)C2(C)C [Cpd A, (1S,2R,4S)-(+)-2-[N,N-(dimethylaminoethoxy)]-2-phenyl-1,7,7-trimethyl-bicyclo[2.2.1]heptane] | 93 | – | 79 | 44 | – | 56 | 29 | 32 |
